From article PMC12114375, “Discovery of Hydrazineyl Amide Derivative of Pseudolaric Acid B for Reprogramming Tumor-Associated Macrophages Against Tumor Growth” (Molecules, 2025) come the findings set out here.

Like-named read-outs stand apart in the source and are kept apart here.

A short description of data set [1]: In vivo pharmacokinetic study in mice. The settings on record: 1 mg/kg i.v., mean ± SD. On the set-up: species or system ICR mice. The procedure:
To investigate the druggability of compound 12, the pharmacokinetic (PK) properties of 12 were examined in mice. The mice were treated with 12 intravenously (i.v.) at a dose of 1 mg/kg, and the resulting PK parameters were recorded.
ICR mice (n = 3) were administered with the test compound via intravenous injection at 1 mg/kg. Blood samples were collected 0.083, 0.25, 0.5, 1, 2, 4, 8, and 24 h after administration. An aliquot of 10 μL of the plasma sample was deproteinized with 200 μL of a MeOH: ACN = 1: 1 solution containing an internal standard. After centrifugation, the supernatant was injected for LC–MS/MS analysis. A standard set of parameters, including the area under the curve (AUC0–∞), elimination half-life (T1/2), time to reach the maximum plasma concentration (Tmax), maximum plasma concentration (Cmax), plasma clearance (Cl), and mean residence time (MRT), were calculated using WinNonlin software.

For data set [2], the system named is tumor-infiltrating immune cells in Hepa1-6 tumor. In words: Flow cytometric analysis of tumor-infiltrating immune cells in the Hepa1-6 model. The format is in vivo, C57 BL/6 mice. The settings on record: Hepa1-6 tumor tissue, 25 mg/kg, 2 h after the last treatment. The text has this: Encouraged by its intriguing cellular activities, we investigated the anti-tumor effect of compound 12 in vivo. The Hepa1-6 liver cancer model, an immunocompetent macrophage-rich subcutaneous murine tumor model, was thus established. […] To further investigate whether the in vivo anti-tumor effect of compound 12 is associated with its inhibition of pro-tumoral macrophages and consequent activation of anti-tumor CD8^+ T cells, we analyzed the infiltration of macrophages and CD8^+ T cells in the tumor tissue of the Hepa1-6 model.
Animal procedures were approved by the Institutional Animal Care and Use Committee of the Shanghai Institute of Materia Medica (approval no. 2024-06-DJ-95). Mice (4–6 weeks old) were housed with five or six mice per cage in a specific pathogen-free room with a 12 h light/dark schedule at 25 °C ± 1 °C and were fed an autoclaved chow diet and water ad libitum. Hepa1-6 cells (2 × 10^6 cells) were subcutaneously implanted in the right flank of C57 BL/6 mice. When the tumors reached a volume of around 50 mm^3, the mice were randomized into the treatment groups. The vehicle groups were given the vehicle alone, and the treatment groups received compound 1 in the indicated doses via intratumoral injections once daily on the indicated days. The tumor volumes and body weights were measured twice per week. Tumor volume (TV) was calculated as follows: TV = (length × width^2)/2. Significant differences between the treated versus the vehicle groups were determined using the Student’s t-test. […] Consequently, the sample size for this treatment group was reduced to 7. Hepa1-6 tumor tissues were minced and digested using a Mouse Tumor Dissociation Kit (Miltenyi, Bergisch Gladbach, Germany). The cells were passed through a 70 μm cell strainer, stained with a fluorescent antibody or the matching isotype controls for 30 min at room temperature, and then tested using a BD CytoFLEX LX (Beckman). […] Viability was determined by staining with either the LIVE/DEAD® Fixable Violet Dead Cell Stain Kit (Invitrogen, Waltham, […], USA) or the Zombie Aqua™ Fixable Viability Kit (Biolegend, San Diego, CA, USA). Data were analyzed using FlowJo10.4 software.
Figure 4 Compound 12 inhibited Hepa1-6 tumor growth in vivo and remodeled the tumor microenvironment. […] The TVs (A) and body weights (B) are presented as the mean ± SEM. * p < 0.05 vs. the vehicle group, determined by the Student’s t-test. […] The infiltration of CD45^+ cells (C), TAMs (D), CD206^+ TAMs (E), ARG1^+ TAMs (F), CD8^+ T cells (G), GRZB^+ CD8^+ T cells (H), IFN γ^+ CD8^+ T cells (I), and TNF α^+ CD8^+ T cells (J) was tested (n = 8 mice in the vehicle group and n = 7 mice in the 12-treated group). * p < 0.05, ** p < 0.01, *** p < 0.001 vs. the vehicle group, determined by the Student’s t-test. […]

The term Tmax denotes the time at which the peak concentration occurs. One may read the AUC(0-inf) as the area under the concentration-time curve extrapolated to infinity. Lower therefore signals low exposure. By Cmax is commonly meant the highest concentration seen after dosing. What is called clearance is the rate of elimination divided by the concentration. The low end stands for a low capacity for elimination, the high end for a high capacity for elimination. For orientation: half-life means the time needed for the level to fall by half in the phase considered. As to `COC(=O)C1=CC[C@@]23CC[C@@H]([C@@](C)(/C=C/C=C(\C)C(=O)NNCCO)OC2=O)[C@@]3(OC(C)=O)CC1` [compound 12, Methyl(3R,4S,4aS,9aR)-4a-acetoxy-3-((1E,3E)-5-(2-(2-hydroxyethyl)hydrazineyl)-4-methyl-5-oxopenta-1,3-dien-1-yl)-3-methyl-1-oxo-3,4,4a,5,6,9-hexahydro-1H-4,9a-ethanocyclohepta[c]pyran-7-carboxylate], in data set [1] (n = 3, 1 mg/kg), the time to peak (Tmax) stood at 5 ± 0 min. In data set [1] (ICR, mouse, plasma, iv, n = 3), this molecule had an area under the curve AUC(0-inf) of 363 ± 29.4 ng·h/mL, a Cmax of 32.1 ± 11.7 ng/mL, a clearance of 46.1 mL/min/kg and a half-life of 40.2 ± 6.88 h. Besides, the MRT inf in data set [1] (ICR, mouse, plasma, iv, n = 3, read-out: MRT0–∞) came out at 63.1 ± 7.96 h. The time to peak (Tmax) in data set [1] (ICR, mouse, plasma, iv, 1 mg/kg, n = 3, read-out: Tmax) was 4.98 min. Besides, in data set [2], the “TAMs with the M1-like phenotype (CD86+ TAMs, MHC II+ TAMs)” value is given as “marginal upregulation”; the “infiltration of CD8+ T cells and activated (GRZB+, IFNγ+, TNFα+) CD8+ T cells in CD45+ cells” value was “significantly upregulated”; the “infiltration of total immune cells (CD45+ cells)” value is reported as “increasing trend”; the “tumor infiltration of total TAMs, CD206+ TAMs and ARG1+ TAMs in CD45+ cells” value is “significantly reduced”.
